Where “and” joins values, the source holds several entries; their conditions need not be identical. Equal values may be shown once.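 Assay format: 96-well plates, 48-hour exposure. Here, GI50 denotes the concentration required for 50% inhibition of growth. The concentration for full growth arrest is given as TGI.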
How the values were obtained:
Assay in all cases: NCI-60 cell line screen, 48 h
[1] = test system: OVCAR-5 ovarian
[2] = test system: ACHN renal
[3] = test system: SNB-19 CNS
[4] = test system: COLO 205 colon
[5] = test system: MDA-MB-231 breast
[6] = test system: SF-539 CNS
[7] = test system: CAKI-1 renal
[8] = test system: UACC-62 melanoma
[9] = test system: HCT-116 colon
[10] = test system: K-562 leukemia

SMILES	GI50 [1]	TGI [1]	GI50 [2]	TGI [2]	GI50 [3]	TGI [3]	GI50 [4]	TGI [4]	GI50 [5]	TGI [5]	GI50 [6]	TGI [6]	GI50 [7]	TGI [7]	GI50 [8]	TGI [8]	GI50 [9]	TGI [9]	GI50 [10]	TGI [10]
O=C1NC(=O)[C@@H](c2cn3c4c(cccc24)CCC3)[C@@H]1c1c[nH]c2ccccc12	0.652 µM and 1.1 µM	> 10 µM and 22.2 µM	0.661 µM and 0.829 µM	> 10 µM and 32.9 µM	0.466 µM and 0.601 µM	> 10 µM and 22.6 µM	0.273 µM and 0.326 µM	0.973 µM and 1.14 µM	0.632 µM and 1.19 µM	8.12 µM and 9.86 µM	0.319 µM and 0.337 µM	2.39 µM and 5.25 µM	0.332 µM and 0.518 µM	> 10 µM and 31.4 µM	0.443 µM and 0.51 µM	> 10 µM and 18.3 µM	0.377 µM and 0.458 µM	> 6.16 µM and 10.6 µM	0.182 µM and 0.312 µM	> 10 µM and 18.6 µM
CCOC(=O)c1sc2ncn(Cc3cccc(Cl)c3)c(=O)c2c1C	17.4 µM	31.2 µM	14.7 µM	27.9 µM	16.3 µM	29.8 µM	20.7 µM	36.6 µM	13.6 µM	26.4 µM	19.3 µM	33.4 µM	6.19 µM	19.2 µM	13.4 µM	26.8 µM	12.3 µM	24.8 µM	12.3 µM	24.8 µM
COC(=O)c1ccc(-c2nc3cc(F)c(F)cc3nc2C#N)cc1	12.1 µM	32.6 µM	11.5 µM	26.3 µM	9.35 µM	17 µM	13 µM	33.2 µM	1.57 µM	6.87 µM	10.7 µM	18.7 µM	8.48 µM	18.5 µM	2.66 µM	5.83 µM	7.84 µM	14.6 µM	1.9 µM	16.3 µM
C[C@@H](Oc1cc(-c2cnn(C3CCNCC3)c2)cnc1N)c1c(Cl)ccc(F)c1Cl	1.14 µM	> 10 µM	2.97 µM	> 10 µM	2.24 µM	> 10 µM	0.42 µM	1.57 µM	1.17 µM	6.5 µM	1.8 µM	3.5 µM	3.39 µM	> 10 µM	1.54 µM	4.66 µM	0.619 µM	4.77 µM	0.267 µM	2.3 µM
CS(=O)(=O)c1ccc(Oc2nccc(-c3c(-c4ccc(F)cc4)ncn3C3CCNCC3)n2)cc1	> 25 µM	> 25 µM	> 25 µM	> 25 µM	> 25 µM	> 25 µM	> 25 µM	> 25 µM	> 25 µM	> 25 µM	> 25 µM	> 25 µM	> 25 µM	> 25 µM	> 25 µM	> 25 µM	> 25 µM	> 25 µM	> 9.38 µM	> 14.9 µM
CCN(Cc1ccc(F)cc1F)c1ccc(CO)c(Cl)c1	0.0685 µM	0.317 µM	14.1 µM	38.3 µM	19.9 µM	68.8 µM	3.31 µM	9.24 µM	12.1 µM	25.5 µM	16.1 µM	31.7 µM	5.11 µM	> 54.1 µM	0.0981 µM	0.581 µM	0.0861 µM	12.5 µM	1.65 µM	> 100 µM
CC(C)(C)[Si](C)(C)OC1[C@@H](O[Si](C)(C)C(C)(C)C)[C@@H](CNC(=O)NC(=O)NC(=O)CI)O[C@H]1n1cnc2c(NC(=O)Nc3ccccc3)ncnc21 (some centres not stated)	2.71 µM	12.2 µM	1.41 µM	9.75 µM	12.5 µM	38.2 µM	6.11 µM	13.2 µM	0.251 µM	0.995 µM	0.441 µM	1.16 µM	0.0966 µM	0.406 µM	8.63 µM	22.6 µM	2.82 µM	9.08 µM	3.55 µM	8.5 µM
C=C(CN1CCc2ccccc2C1)c1ccc(/C=C/C(=O)Nc2ccccc2N)cc1	12.8 µM	> 100 µM	5.4 µM	> 100 µM	26.6 µM	> 100 µM	32.2 µM	> 100 µM	4.36 µM	48.3 µM	13 µM	> 100 µM	2.21 µM	94.5 µM	4.99 µM	22.8 µM	1.59 µM	5.7 µM	5.49 µM	> 100 µM
c1ccc(Oc2c3ccccc3nc3ccccc23)cc1	3.7 µM	13.7 µM	3.61 µM	13.7 µM	5.35 µM	18 µM	2.61 µM	6.07 µM	3.08 µM	9.82 µM	2 µM	5.22 µM	6.07 µM	19.5 µM	4.97 µM	16.9 µM	0.714 µM	3.13 µM	0.454 µM	24.7 µM
O=P(Oc1ccccc1)(Oc1ccccc1)C(O)c1ccccc1 (configuration not stated)	> 100 µM	> 100 µM	> 100 µM	> 100 µM	> 100 µM	> 100 µM	35 µM	> 100 µM	71.3 µM	> 100 µM	> 100 µM	> 100 µM	66.5 µM	> 100 µM	44.8 µM	> 100 µM	65.9 µM	> 100 µM	46.8 µM	> 100 µM
O=C(O)C1CCCN1Cc1c[nH]c2ccccc12 (configuration not stated)	–	> 100 µM	–	> 100 µM	–	> 100 µM	–	> 100 µM	–	> 100 µM	–	> 100 µM	–	> 100 µM	–	> 100 µM	–	> 100 µM	–	> 100 µM
COc1ccc(/C=C\c2cc(OC)c(OC)c(OC)c2)cc1NC(=O)[C@@H](N)CO	< 0.023 µM	> 100 µM	0.0268 µM	> 100 µM	0.0433 µM	> 100 µM	< 0.01 µM	0.0153 µM	0.0215 µM	> 100 µM	0.0145 µM	0.0649 µM	< 0.01 µM	> 100 µM	–	> 100 µM	0.0176 µM	> 100 µM	< 0.01 µM	> 100 µM
O=C1CC2(CCCc3sccc32)C(=O)N1 (configuration not stated)	–	> 100 µM	–	> 100 µM	–	> 100 µM	–	> 100 µM	–	> 100 µM	–	> 100 µM	–	> 100 µM	–	> 100 µM	–	> 100 µM	–	> 100 µM
COc1cccc(-c2nc(-c3ccc(NS(=O)(=O)c4ccccc4)cc3)[nH]c2-c2ccnc(Br)c2)c1	4.17 µM	> 100 µM	2.6 µM	> 100 µM	4.03 µM	> 100 µM	2.66 µM	12.4 µM	3.23 µM	45.8 µM	2.53 µM	8.03 µM	1.75 µM	5.63 µM	2.58 µM	8.56 µM	2.09 µM	5.46 µM	2.6 µM	> 100 µM
O=c1oc2ccccc2cc1-c1ccc([N+](=O)[O-])cc1	–	> 100 µM	–	> 100 µM	–	> 75.6 µM	–	> 100 µM	–	> 100 µM	–	> 100 µM	–	> 100 µM	–	> 100 µM	–	> 100 µM	–	> 100 µM
Cc1c(C(=O)N/N=C/c2ccc(O)cc2)nnn1-c1ccnc2c(C(F)(F)F)cccc12	> 100 µM	> 100 µM	41.1 µM	> 100 µM	23.5 µM	76.7 µM	> 100 µM	> 100 µM	12.7 µM	48.4 µM	42 µM	> 100 µM	> 100 µM	> 100 µM	> 100 µM	> 100 µM	50.1 µM	> 100 µM	> 100 µM	> 100 µM
Cc1c(C(=O)CCl)c(=O)n(-c2ccccc2)n1C	13.3 µM	27.1 µM	4.54 µM	16.6 µM	17.1 µM	51.1 µM	3.28 µM	11.2 µM	11.2 µM	27.9 µM	7.19 µM	22.9 µM	3.2 µM	12 µM	4.78 µM	18.9 µM	2.86 µM	10.4 µM	2.76 µM	17.3 µM
Cc1c2ncccc2c(C)c2c1[nH]c1ccc(O)cc12	46.6 µM	24.4 µM and 120 µM	3.06 µM	12.4 µM and 18.7 µM	19.7 µM	20.2 µM and 84.3 µM	23.1 µM	24.3 µM and 111 µM	7.26 µM	19.2 µM and 54.4 µM	4.85 µM	20.8 µM	–	15.8 µM	7.92 µM	27.1 µM and 21.1 µM	2.91 µM and 6.58 µM	11 µM and 64.6 µM	5.04 µM	20.9 µM and 50.4 µM
COc1cc2c3c(n(CCCO)c(=O)c2cc1OC)-c1cc2c(cc1C3=O)OCO2	> 79.2 µM	> 100 µM	1.65 µM	9.83 µM	14.5 µM	> 100 µM	26.4 µM	98 µM	23.4 µM	> 76.6 µM	–	6.79 µM	0.465 µM	> 19.6 µM	2.45 µM	25.3 µM	2.96 µM	> 38.6 µM	6.96 µM	> 47 µM
Clc1ccc(N2COOC3(OOC2)C2CC4CC(C2)CC3C4)cc1	8.34 µM	> 74.8 µM	0.622 µM	6.03 µM	> 40 µM	> 100 µM	12.7 µM	90.8 µM	6.69 µM	> 57.9 µM	4.74 µM	59.3 µM	0.299 µM	19.5 µM	1.01 µM	> 43 µM	4.1 µM	> 50.2 µM	0.543 µM	> 39.5 µM
Cc1ccc2c(/C=C/C(=O)c3cc(CN4CCOCC4)c(O)c4nc(C)ccc34)cc(CN3CCOCC3)c(O)c2n1	1.55 µM	13.1 µM	0.535 µM	2.06 µM	0.603 µM	17.6 µM	1.82 µM	4.49 µM	1.44 µM	5.2 µM	0.459 µM	2.02 µM	0.297 µM	1.53 µM	0.432 µM	7.48 µM	0.412 µM	3.41 µM	0.355 µM	17.1 µM
CCOC(=O)Oc1c(OC)cc(C(=O)c2ccc(OC)c(OC(=O)CCl)c2OC)cc1OC	5.88 µM	> 100 µM	3.66 µM	> 100 µM	0.75 µM	> 100 µM	9.57 µM	66.7 µM	1.9 µM	> 100 µM	0.805 µM	6.38 µM	3.76 µM	> 100 µM	2.67 µM	> 100 µM	0.494 µM	36.2 µM	0.457 µM	> 100 µM
O=C(Oc1cccc(Nc2ncnc3ccccc23)c1)c1ccccc1Cl	32.3 µM	> 100 µM	23.1 µM	62 µM	52.7 µM	> 100 µM	24 µM	> 100 µM	14.3 µM	36 µM	30.5 µM	88.9 µM	9.6 µM	35.8 µM	22.5 µM	80.6 µM	14.7 µM	33 µM	43.1 µM	> 100 µM
CC1/C=C/C=C/CC/C=C/C=C/C=C/C=C/C(OC2OC(C)C(O)C(N)C2O)CC2OC(CC(O)C(O)CCC(O)CC(O)CC(O)CC(=O)OC(C)C(C)C1O)CC(O)C2C(=O)O (configuration not stated)	49.5 µg/mL	35.8 µM and 135 µg/mL	22.8 µg/mL	32.3 µM and 42.7 µg/mL	94.5 µg/mL	34 µM and 150 µg/mL	81.7 µg/mL	56.8 µM and 150 µg/mL	29.4 µg/mL	39.4 µM and 69.2 µg/mL	28 µg/mL	32.3 µM and 64.1 µg/mL	23.5 µg/mL	31.8 µM and 44.5 µg/mL	28.8 µg/mL	38 µM and 55.8 µg/mL	37.7 µg/mL	32.1 µM and 112 µg/mL	74.9 µg/mL	> 100 µM and 150 µg/mL
O=c1oc2ccccc2c(Cl)c1Cl	14.7 µM	30.1 µM	2.49 µM	5.92 µM	10.5 µM	22.7 µM	2.19 µM	4.84 µM	2.48 µM	6.2 µM	4.07 µM	15.3 µM	2.69 µM	8.97 µM	4.82 µM	18.1 µM	3.49 µM	13.6 µM	2.63 µM	> 100 µM

Reference: PubChem BioAssay (NCI)
